Data reported in PubChem BioAssay (NCI).
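Protocol summary: plate cells (96-well), add compound at 5 concentrations, incubate 48 h, interpolate endpoints linearly. Here, GI50 denotes the concentration required for 50% inhibition of growth. TGI marks complete inhibition of growth.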

Key:
Assay in all cases: inhibition of tumour cell growth, NCI panel, 48 h
HT29 colon = system: HT29 colon
LOX IMVI melanoma = system: LOX IMVI melanoma
MALME-3M melanoma = system: MALME-3M melanoma
MDA-MB-231 breast = system: MDA-MB-231 breast
MDA-MB-435 = system: MDA-MB-435
MOLT-4 leukemia = system: MOLT-4 leukemia
NCI/ADR-RES ovarian = system: NCI/ADR-RES ovarian
OVCAR-8 ovarian = system: OVCAR-8 ovarian
SK-MEL-28 melanoma = system: SK-MEL-28 melanoma
A498 renal = system: A498 renal

| Compound | TGI (HT29 colon) [µM] | TGI (LOX IMVI melanoma) [µM] | TGI (MALME-3M melanoma) [µM] | TGI (MDA-MB-231 breast) [µM] | TGI (MDA-MB-435) [µM] | TGI (MOLT-4 leukemia) [µM] | TGI (NCI/ADR-RES ovarian) [µM] | TGI (OVCAR-8 ovarian) [µM] | TGI (SK-MEL-28 melanoma) [µM] | TGI (A498 renal) [µM] | GI50 (A498 renal) [µM] | GI50 (HT29 colon) [µM] | GI50 (LOX IMVI melanoma) [µM] | GI50 (MDA-MB-231 breast) [µM] | GI50 (MDA-MB-435) [µM] | GI50 (MOLT-4 leukemia) [µM] | GI50 (NCI/ADR-RES ovarian) [µM] | GI50 (SK-MEL-28 melanoma) [µM] |
| --- | --- | --- | --- | --- | --- | --- | --- | --- | --- | --- | --- | --- | --- | --- | --- | --- | --- | --- |
| CSc1nc(N)c2c(-c3ccccc3)c3c(nc2n1)CCCC3 | > 100 | > 100 | > 100 | > 100 | > 100 | > 100 | > 100 | > 100 | > 100 | – | – | – | – | – | – | – | – | – |
| CC(C)C1=CC(=O)[C@@](C)(C2[C@H](O)C[C@@]3(C)[C@@H]4CC=C5[C@@H](CC[C@@H](OC6OCC(O)C(O)C6OC6OC(C)C(O)C(O)C6O)C5(C)C)[C@]4(C)C(=O)C[C@]23C)O1 (some centres not stated) | > 100 | – | > 100 | > 100 | > 100 | > 100 | > 100 | > 100 | > 100 | > 100 | – | – | – | – | – | – | – | – |
| C=C1C(=O)O[C@H]2C[C@@H]1[C@@H](O)[C@H](O)[C@@H](C)CCCC(C)=CCC[C@@]2(C)O | – | 65 | 32.2 | 84.4 | > 100 | 54.6 | – | – | 77.7 | > 100 | – | – | – | – | – | – | – | – |
| COc1cc2c(cc1OC)C(=O)/C(=C/c1cc(C)cc(C)c1)C2 | 0.835 | > 96.8 | – | 7.44 | – | > 90.3 | > 38 | – | > 100 | 48 | – | – | – | – | – | – | – | – |
| O=c1[nH]c(=O)n(COCc2ccccc2)cc1Nc1ccc(Br)cc1 | > 100 | > 100 | – | – | > 100 | > 100 | > 100 | – | > 100 | > 100 | – | – | – | – | – | – | – | – |
| C=C(Cl)C(Cl)(CCl)CCC(Br)C(C)(C)Br (configuration not stated) | > 10 | – | – | > 10 | > 10 | > 10 | – | > 10 | > 10 | > 10 | – | – | – | – | – | – | – | – |
| COc1ccc(-c2c(-c3ccccc3)c(C)nc3nc(SC)nc(SC)c23)cc1OC | > 100 | 33.2 | 38.5 | > 100 | > 100 | 71.3 | – | – | > 100 | 56.9 | – | – | – | – | – | – | – | – |
| CCN1CCC(CNC(=O)c2ccc(N)cc2)N1CC (configuration not stated) | > 100 | – | > 100 | > 100 | > 100 | > 100 | > 100 | > 100 | > 100 | > 100 | – | – | – | – | – | – | – | – |
| OC1COC2CC(Nc3ccccn3)OC12 (configuration not stated) | > 100 | > 100 | > 100 | > 100 | > 100 | > 100 | > 100 | > 100 | > 100 | – | – | – | – | – | – | – | – | – |
| COc1cc(-c2c3c(cc4c2OCO4)[C@@H](Nc2ccc(-c4ccc(-c5ccc(N[C@@H]6c7cc8c(cc7C(c7cc(OC)c(O)c(OC)c7)[C@H]7C(=O)OC[C@H]67)OCO8)cc5)cc4)cc2)[C@H]2COC(=O)[C@@H]2C3)cc(OC)c1O (some centres not stated) | 5.62 | > 100 | 7.4 | 6 | 3.86 | – | 5.92 | 3.77 | 15.7 | 21.4 | – | – | – | – | – | – | – | – |
| CCCCCCCCCCCCCC[n+]1ccc(C)cc1 | 1.82 | 1.36 | – | 3.7 | 2.16 | 2.65 | 37 | – | 3.09 | 12.6 | 2.93 | 0.356 | 0.35 | 1.34 | 0.638 | 0.689 | 11.8 | 1.44 |
| Clc1ccc(C[P+](c2ccccc2)(c2ccccc2)c2ccccc2)cc1Cl | 11.9 | 11.7 | 7.8 | – | – | – | – | 12.4 | 11.4 | 27 | – | – | – | – | – | – | – | – |
| O=C1CSC(c2ccc(Cl)cc2Cl)N1c1ccc(Oc2ccc(Cl)cc2)c(Cl)c1 (configuration not stated) | 30.6 | 36.6 | 38.2 | 45.2 | 26.3 | 81.5 | 55.1 | > 100 | > 100 | – | – | – | – | – | – | – | – | – |
| O=C(SCc1cccc2ccccc12)c1ccc(Cl)cc1 | > 100 | > 100 | > 100 | > 100 | > 100 | – | > 100 | > 100 | > 100 | > 100 | – | – | – | – | – | – | – | – |
| COc1cc2c(/C=C3/C(=O)N(C)c4ccc(O)cc43)c(Cl)[nH]c2cc1C | 46.7 | 17.3 | – | 15 | 0.124 | 0.784 | 5.59 | 15 | 15.4 | 5.39 | – | – | – | – | – | – | – | – |
| C#CC(O)/C=C/CCCCCCC#CC/C=C\CC#CCCCCCCCCC(O)C#C (configuration not stated) | 12.3 | < 0.0261 | 4.41 | 11.8 | 7.43 | – | 10.2 | 5.11 | 13.1 | 28.9 | – | – | – | – | – | – | – | – |
| CCOC(=O)C1(C#N)CC1 | > 100 | > 100 | > 100 | > 100 | – | > 100 | > 100 | > 100 | > 100 | – | – | – | – | – | – | – | – | – |
